Experimental data published in patent publication US10662146B2, “Prodrugs of fencamfamine” (Praxis Bioresearch, LLC, priority 2015, dated 2020).
Where two headings read alike, the source gives them in different places.

Legend:
[1] = Single dose oral PK study in male Sprague Dawley rats (plasma by LC-MS/MS); assay type: in vivo; settings: mean; for AUC: read-out: Oral PK Parameters AUC, Prodrug
Description: (§1) We describe here PK results of prodrugs of PRX-002 (−) or (+) isomers. All doses of prodrugs were administered such that they were equivalent to 5 mg/kg of PRX-002 (−) or (+) for oral studies and 2 mg/kg PRX-002 (−) or (+) for intravenous studies in male Sprague-Dawley (MSD) rats. Higher doses of up to 10 or 15 mg/kg [again equivalent to PRX-002 (−)] were used in some studies (as specified)]. Formulation preparation, dose administration and time of sample collection was as follows.
Test item was weighed [5 mg equivalent dose of PRX-002 for prodrugs] and transferred to a graduated tube. Then 10 μL of Tween 80 was added and vortexed mixed until the test item was completely mixed. Small volume of 0.5% (w/v) carboxymethylcellulose in water solution was then added dropwise with continuous vortex mixing until a uniform suspension was obtained. The final volume was then made up to 10 mL with 0.5% (w/v) carboxymethylcellulose in water with final strength of 0.5 mg/mL. […] This formulation was freshly prepared before the administration to animals.
(§2) Adult male Sprague Dawley Rats aged 8-10 weeks were used for the study. Fasted animals were administered test item by oral route with a dose of 5 mg/kg body weight at dose volume of 10 mL/kg body weight. Under mild isoflurane anesthesia, blood specimens were collected by retro-orbital puncture method using capillary tubes into pre-labeled tubes containing anticoagulant (K2EDTA-2 mg/mL blood) during the next 24 hours of post dose as mentioned in below table. For blood sampling at multiple time points, right and left eyes were used alternatively for blood collection. Collected blood specimens were centrifuged at 4000 rpm, 4° C. for 10 minutes and plasma were separated and stored at −80° C. until analysis.
Blood was collected as outlined in Table 39.1 (oral).
(§3) Test item PRX-P4-003 was weighed and transferred to a graduated tube. Then 12.42 μL of Tween 80 was added and vortexed mixed until the test item was completely mixed. Small volume of 0.5% (w/v) Carboxymethylcellulose in water solution was then added dropwise with continuous vortex mixing until a uniform suspension was obtained. The final volume was then made up to 12.42 mL with 0.5% (w/v) Carboxymethylcellulose in water with final strength of 1.0 mgA/mL. […] This formulation was freshly prepared before the administration to animals.
as §2, with “with a PRX-P4-003” for “test item”, “10” for “5”
as §3, with “PRX-P5-006” for “PRX-P4-003”, “10” for “12.42”, “3.97 mg/mL.” for “1.0 mgA/mL.”
Adult male Sprague Dawley Rats aged 8-10 weeks were used for the study. Fasted animals were administered with a PRX-P5-006 by oral route with a dose of 15 mg/kg body weight at dose volume of 10 mL/kg body weight. […]

[2] = Single dose intravenous PK study in male Sprague Dawley rats (plasma by LC-MS/MS); assay type: in vivo; settings: male, Sprague Dawley, rat; IV 2 mg/kg [equivalent to PRX-002 (−)], analyte: prodrug in plasma, mean; read-out: IV PK Parameters Tmax, Prodrug
Description: as §1
as §2, with “study. Animals” for “study. Fasted animals”, “administered the” for “administered”, “by Intravenous bolus” for “by oral”, “of 2” for “of 5”, “of 5.0” for “of 10”
Blood was collected as outlined in Table 39.2 (IV).
Test item PRX-P4-003 was weighed and transferred to a graduated tube. Then 600 μL of PEG 400 (v/v) was added and vortex mixed thoroughly until the test item was completely dissolved. Then 1.800 mL of Hydroxypropyl-β-cyclodextrin (HPβCD, 50% w/v) was added and vortex mixed thoroughly. The final volume was then made up to 3.600 mL with sterile water for injection (SWFI, v/v) with final formulation strength of 5.16 mgA/mL. […] This formulation was freshly prepared before the administration to animals.
as §2, with “study. Animals” for “study. Fasted animals”, “administered with a PRX-P4-003” for “administered test item”, “by Intravenous bolus” for “by oral”, “of 10” for “of 5”, “of 5” for “of 10”
Test item PRX-P5-006 was weighed and transferred to a graduated tube. Then 500 μL of DMSO (v/v) was added vortex mixed thoroughly until the test item was completely dissolved. Then 4000 μL of Hydroxypropyl-β-cyclodextrin (HPβCD, 50% w/v) was added and vortex mixed thoroughly. Then 2500 μL of PEG 400 (v/v) was added and vortex mixed thoroughly. The final volume was then made up to 10000 μL with sterile water for injection (SWFI, v/v) with final formulation strength of 3.97 mg/mL. […] This formulation was freshly prepared before the administration to animals.
as §2, with “Animals” for “Fasted animals”, “with a PRX-P5-006” for “test item”, “Intravenous bolus” for “oral”, “15” for “5”
The plasma concentrations of fencamfamine were measured by LC-MS/MS over time. […] The release of fencamfamine from the prodrugs varied depending on the chain length of the fatty acid linkers attached to fencamfamine. […]

[3] = male, Sprague Dawley, rat, in vivo, oral 5 mg/kg [equivalent to PRX-002 (−)], analyte: prodrug in plasma, read-out: Oral PK Parameters Tmax, Prodrug
[4] = male, Sprague Dawley, rat, in vivo, po, 5 mg/kg, oral 5 mg/kg [equivalent to PRX-002 (−)], analyte: prodrug in plasma, read-out: Oral PK Parameters Cmax, Prodrug
[5] = male, Sprague Dawley, rat, in vivo, oral 5 mg/kg [equivalent to PRX-002 (−)], analyte: prodrug in plasma

Compound: CCCCCCCCCC(=O)OCOC(=O)N(CC)C1C2CCC(C2)C1c1ccccc1 (single isomer, unassigned) [PRX-P4-002, N-(Decanoyloxymethoxycarbonyl)-(−)-N-ethyl-3-phenylbicyclo[2.2.1]heptan-2-amine]
- Tmax [1, 3]: 0 min
- Tmax [2]: 0 h

Compound: CCCCCCCCCC(=O)OC(C)OC(=O)N(CC)C1C2CCC(C2)C1c1ccccc1 (single isomer, unassigned) [PRX-P5-002, N-(1-Decanoyloxyethoxycarbonyl)-(−)-N-ethyl-3-phenylbicyclo[2.2.1]heptan-2-amine]
- Tmax [1, 3]: 0 min
- Tmax [2]: 0 h

Compound: CCN(C(=O)[C@@H](NC(=O)[C@@H](N)C(C)C)C(C)C)C1C2CCC(C2)C1c1ccccc1 (single isomer, unassigned) [PRX-P6-011, N-(Valyl-valyl)-(+)-N-ethyl-3-phenylbicyclo[2.2.1]heptan-2-amine]
- AUC% extrap of PRX-P6-011 ([1]; PRX-P6-011 oral 5 mg/kg): 23.190 ± 3.6640%
- Cmax [1, 4]: 82.2 ± 30.9 ng/mL
- concentration at 0 h ([1]; male, Sprague Dawley, rat, in vivo, PRX-P6-011 oral 5 mg/kg b.w., 0.00 h, read-out: Plasma concentrations of PRX-P6-011): 0 ng/mL
- concentration at 0.08 h ([1]; male, Sprague Dawley, rat, in vivo, PRX-P6-011 oral 5 mg/kg b.w., 0.08 h, read-out: Plasma concentrations of PRX-P6-011): 75.9 ng/mL
- concentration at 4 h ([1]; male, Sprague Dawley, rat, in vivo, PRX-P6-011 oral 5 mg/kg b.w., 4.00 h, read-out: Plasma concentrations of PRX-P6-011): 0 ng/mL
- concentration at 6 h ([1]; male, Sprague Dawley, rat, in vivo, PRX-P6-011 oral 5 mg/kg b.w., 6.00 h, read-out: Plasma concentrations of PRX-P6-011): 0 ng/mL
- concentration at 24 h ([1]; male, Sprague Dawley, rat, in vivo, PRX-P6-011 oral 5 mg/kg b.w., 24.00 h, read-out: Plasma concentrations of PRX-P6-011): 0 ng/mL
- AUC [1, 5]: 44.2 ± 17.1 ng·h/mL
- Tmax [1, 3]: 8.4 ± 6 min
- AUC(0-inf) ([1]; male, Sprague-Dawley, rat, in vivo, po, 5 mg/kg, PRX-P6-011 oral 5 mg/kg, read-out: AUCinf of PRX-P6-011): 57.3 ± 21.3 ng·h/mL
- AUC(0-t) ([1]; male, Sprague-Dawley, rat, in vivo, po, 5 mg/kg, PRX-P6-011 oral 5 mg/kg, read-out: AUClast of PRX-P6-011): 44.2 ± 17.1 ng·h/mL
- Cmax ([1]; male, Sprague-Dawley, rat, in vivo, po, 5 mg/kg, PRX-P6-011 oral 5 mg/kg, read-out: Cmax of PRX-P6-011): 82.2 ± 30.9 ng/mL
- MRT last ([1]; male, Sprague-Dawley, rat, in vivo, po, 5 mg/kg, PRX-P6-011 oral 5 mg/kg, read-out: MRTlast of PRX-P6-011): 34.5 ± 2.22 min
- half-life ([1]; male, Sprague-Dawley, rat, in vivo, po, 5 mg/kg, PRX-P6-011 oral 5 mg/kg, read-out: T1/2 of PRX-P6-011 (converted)): 70.3 ± 12.7 min
- concentration at 0.25 h ([1]; male, Sprague-Dawley, rat, in vivo, PRX-P6-011 oral 5 mg/kg b.w., 0.25 h, read-out: Plasma concentrations of PRX-P6-011): 62.8 ng/mL
- concentration at 0.5 h ([1]; male, Sprague-Dawley, rat, in vivo, PRX-P6-011 oral 5 mg/kg b.w., 0.50 h, read-out: Plasma concentrations of PRX-P6-011): 20.8 ng/mL
- concentration at 1 h ([1]; male, Sprague-Dawley, rat, in vivo, PRX-P6-011 oral 5 mg/kg b.w., 1.00 h, read-out: Plasma concentrations of PRX-P6-011): 13 ng/mL
- concentration at 2 h ([1]; male, Sprague-Dawley, rat, in vivo, PRX-P6-011 oral 5 mg/kg b.w., 2.00 h, read-out: Plasma concentrations of PRX-P6-011): 7.87 ng/mL
- Tmax ([1]; male, Sprague-Dawley, rat, in vivo, PRX-P6-011 oral 5 mg/kg, read-out: Tmax of PRX-P6-011): 8.22 ± 5.88 min

Compound: CCN(C(=O)[C@@H](N)CCCCN)C1C2CCC(C2)C1c1ccccc1 (stereo partly drawn) [PRX-P1-005, N-Lysyl-(−)-N-ethyl-3-phenylbicyclo[2.2.1]heptan-2-amine]
- Cmax [1, 4]: 32 ± 7.5 ng/mL
- AUC [1, 5]: 42 ± 9.4 ng·h/mL
- Tmax [1, 3]: 30 min

Compound: CCN(C(=O)[C@@H](N)Cc1ccccc1)C1C2CCC(C2)C1c1ccccc1 (stereo partly drawn) [PRX-P1-013, N-Phenylalanyl-(−)-N-ethyl-3-phenylbicyclo[2.2.1]heptan-2-amine]
- Cmax [1, 4]: 307 ± 49.6 ng/mL
- AUC [1, 5]: 678 ± 101 ng·h/mL
- Tmax [1, 3]: 42 ± 18 min
